Our source for the MIC values is ChEMBL document CHEMBL2046443, “Desmethyl Macrolides: Synthesis and Evaluation of 4,10-Didesmethyl Telithromycin” (2012).

Values after ≈ are worked out from the molar mass of the structure shown.

Common to all, as to assay type: functional
Experiment [1] relates to Escherichia coli. Description: Antibacterial activity against wild type Escherichia coli DK/pKK3535.
The test system of experiment [2] is Escherichia coli. Description: Antibacterial activity against Escherichia coli SQ171 harboring 23S rRNA A2058G mutant.
Experiment [3] relates to Escherichia coli. Description: Antibacterial activity against Escherichia coli DK harboring 23S rRNA A2058G mutant.
Experiment [4] relates to Staphylococcus aureus. Description: Antibacterial activity against Staphylococcus aureus UCN14 harboring 23S rRNA A2058T mutant.
The subject of experiment [5] is Staphylococcus aureus. In words: Antibacterial activity against Staphylococcus aureus ATCC 33591 harboring ermA gene.

As a reminder, the MIC is the least concentration at which growth counts as inhibited. Read a high MIC as a less susceptible organism.

With `CC[C@H]1OC(=O)[C@H](C)C(=O)C[C@@H](O[C@@H]2O[C@H](C)C[C@H](N(C)C)[C@H]2O)[C@@](C)(OC)CCC(=O)C[C@@H]2N(CCCCn3cnc(-c4cccnc4)c3)C(=O)O[C@@]21C`, the MIC against Escherichia coli [1] was 32 µg/mL (≈ 41.6 µM).

Turning to `CC[C@H]1OC(=O)[C@H](C)C(=O)C[C@@H](O[C@@H]2O[C@H](C)C[C@H](N(C)C)[C@H]2O)[C@](C)(OC)C[C@@H](C)C(=O)C[C@H]2N(CCCCn3cnc(-c4cccnc4)c3)C(=O)O[C@]12C`, the minimum inhibitory concentration (MIC) against Escherichia coli [2] was greater than 512 µg/mL; in the experiment on Escherichia coli [1], 8 µg/mL (≈ 10.2 µM); in the experiment on Escherichia coli [3], 16 µg/mL (≈ 20.4 µM); in the experiment on Staphylococcus aureus [4] it was greater than 256 µg/mL; against Staphylococcus aureus [5] it was greater than 128 µg/mL.

On to `CC[C@H]1OC(=O)[C@H](C)C(=O)[C@H](C)[C@@H](O[C@@H]2O[C@H](C)C[C@H](N(C)C)[C@H]2O)[C@](C)(OC)C[C@@H](C)C(=O)[C@H](C)[C@H]2N(CCCCn3cnc(-c4cccnc4)c3)C(=O)O[C@]12C` [TELITHROMYCIN], for which the MIC was greater than 512 µg/mL against Escherichia coli [2]; 0.5 µg/mL (≈ 0.616 µM) with Escherichia coli [1]; 1 µg/mL (≈ 1.23 µM) in the experiment with Escherichia coli [3]; greater than 128 µg/mL in the experiment with Staphylococcus aureus [4]; greater than 128 µg/mL against Staphylococcus aureus [5].
